This is an account of results in ChEMBL document CHEMBL3627608, “Crystal structures of human RIP2 kinase catalytic domain complexed with ATP-competitive inhibitors: Foundations for understanding inhibitor selectivity” (Bioorg Med Chem, 2015).

Test [1] deals with Dual specificity tyrosine-phosphorylation-regulated kinase 1B (Homo sapiens) (UniProt Q9Y463). Put plainly: Inhibition of DYRK1B (unknown origin) at 10 uM after 120 mins P33 radiolabeled kinase activity assay.
Test [2] has as its target T1, MAP kinase-activated protein kinase 5 (Homo sapiens) (UniProt Q8IW41).
T1 sequence (whole entry): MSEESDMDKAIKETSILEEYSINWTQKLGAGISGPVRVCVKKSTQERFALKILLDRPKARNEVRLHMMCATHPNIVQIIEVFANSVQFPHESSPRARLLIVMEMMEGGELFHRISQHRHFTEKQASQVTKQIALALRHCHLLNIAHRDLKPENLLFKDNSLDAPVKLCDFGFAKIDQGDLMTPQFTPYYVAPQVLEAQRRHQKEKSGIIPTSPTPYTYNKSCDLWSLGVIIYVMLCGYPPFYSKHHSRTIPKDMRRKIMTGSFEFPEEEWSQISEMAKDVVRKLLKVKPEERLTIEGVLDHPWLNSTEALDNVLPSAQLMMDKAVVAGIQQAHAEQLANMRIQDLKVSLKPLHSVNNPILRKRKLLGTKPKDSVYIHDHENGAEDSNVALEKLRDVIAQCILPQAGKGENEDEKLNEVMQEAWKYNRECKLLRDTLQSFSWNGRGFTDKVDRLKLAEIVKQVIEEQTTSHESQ
Nature of the test: Inhibition of MAPKAPK5 (unknown origin) at 10 uM after 120 mins P33 radiolabeled kinase activity assay.

The target in test [3] is Tyrosine-protein kinase Fes/Fps (Homo sapiens) (UniProt P07332). Nature of the test: Inhibition of FES (unknown origin) at 10 uM after 120 mins P33 radiolabeled kinase activity assay.
Chain of Tyrosine-protein kinase Fes/Fps (Homo sapiens) (P07332 whole entry): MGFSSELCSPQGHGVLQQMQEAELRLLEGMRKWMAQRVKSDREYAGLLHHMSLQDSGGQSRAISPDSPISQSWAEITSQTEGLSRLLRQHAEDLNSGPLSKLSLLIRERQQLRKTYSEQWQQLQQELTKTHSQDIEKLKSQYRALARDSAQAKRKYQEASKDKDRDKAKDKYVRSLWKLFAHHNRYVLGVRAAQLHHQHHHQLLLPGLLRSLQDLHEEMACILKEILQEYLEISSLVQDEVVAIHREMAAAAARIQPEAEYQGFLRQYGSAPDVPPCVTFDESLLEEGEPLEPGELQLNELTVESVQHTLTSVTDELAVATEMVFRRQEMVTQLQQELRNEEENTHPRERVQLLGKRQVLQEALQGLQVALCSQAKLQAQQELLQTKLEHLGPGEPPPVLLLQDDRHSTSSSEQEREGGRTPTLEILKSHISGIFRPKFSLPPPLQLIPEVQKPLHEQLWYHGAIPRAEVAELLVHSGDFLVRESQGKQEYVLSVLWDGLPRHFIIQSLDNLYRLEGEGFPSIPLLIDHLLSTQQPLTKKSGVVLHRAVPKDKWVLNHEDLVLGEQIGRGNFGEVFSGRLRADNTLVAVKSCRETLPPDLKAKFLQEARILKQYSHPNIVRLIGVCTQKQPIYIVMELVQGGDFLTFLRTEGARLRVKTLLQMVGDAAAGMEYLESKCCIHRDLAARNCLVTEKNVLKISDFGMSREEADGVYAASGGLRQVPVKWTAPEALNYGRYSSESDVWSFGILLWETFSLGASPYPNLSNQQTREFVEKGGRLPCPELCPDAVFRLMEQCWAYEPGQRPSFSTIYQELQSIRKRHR
The next test is filed under the species Homo sapiens. Nature of the test: Inhibition of PKCbeta1 (unknown origin) at 10 uM after 120 mins P33 radiolabeled kinase activity assay.
Test [4] has as its target T2, Inhibitor of nuclear factor kappa-B kinase subunit beta (Homo sapiens) (UniProt O14920).
T2 sequence (whole entry): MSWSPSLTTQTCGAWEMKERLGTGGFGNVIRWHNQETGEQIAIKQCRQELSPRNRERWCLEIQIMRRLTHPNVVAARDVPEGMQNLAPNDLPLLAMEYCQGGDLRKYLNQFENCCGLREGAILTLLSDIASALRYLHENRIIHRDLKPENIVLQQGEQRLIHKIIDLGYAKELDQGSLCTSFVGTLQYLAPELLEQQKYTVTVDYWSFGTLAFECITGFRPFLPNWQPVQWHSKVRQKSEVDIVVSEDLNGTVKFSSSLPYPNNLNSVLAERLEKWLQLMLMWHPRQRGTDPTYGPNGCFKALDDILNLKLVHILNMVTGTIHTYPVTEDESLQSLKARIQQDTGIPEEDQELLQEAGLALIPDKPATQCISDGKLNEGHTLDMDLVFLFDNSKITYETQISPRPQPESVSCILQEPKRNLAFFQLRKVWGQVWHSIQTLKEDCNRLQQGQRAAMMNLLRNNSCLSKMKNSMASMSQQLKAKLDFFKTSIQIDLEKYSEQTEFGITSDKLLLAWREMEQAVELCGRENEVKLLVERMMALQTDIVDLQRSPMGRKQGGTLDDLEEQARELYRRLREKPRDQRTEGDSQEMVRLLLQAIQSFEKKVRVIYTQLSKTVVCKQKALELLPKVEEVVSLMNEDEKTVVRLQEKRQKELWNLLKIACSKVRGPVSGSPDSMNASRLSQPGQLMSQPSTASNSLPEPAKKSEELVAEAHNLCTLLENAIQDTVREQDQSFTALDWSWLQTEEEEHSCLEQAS
Nature of the test: Inhibition of IKKbeta (unknown origin) at 10 uM after 120 mins P33 radiolabeled kinase activity assay.

Test [5] addresses Aurora kinase B (Homo sapiens) (UniProt Q96GD4). Put plainly: Inhibition of Aurora B (unknown origin) at 10 uM after 120 mins P33 radiolabeled kinase activity assay.
The target in test [6] is T3, Discoidin domain-containing receptor 2 (Homo sapiens) (UniProt Q16832).
T3 sequence (whole entry): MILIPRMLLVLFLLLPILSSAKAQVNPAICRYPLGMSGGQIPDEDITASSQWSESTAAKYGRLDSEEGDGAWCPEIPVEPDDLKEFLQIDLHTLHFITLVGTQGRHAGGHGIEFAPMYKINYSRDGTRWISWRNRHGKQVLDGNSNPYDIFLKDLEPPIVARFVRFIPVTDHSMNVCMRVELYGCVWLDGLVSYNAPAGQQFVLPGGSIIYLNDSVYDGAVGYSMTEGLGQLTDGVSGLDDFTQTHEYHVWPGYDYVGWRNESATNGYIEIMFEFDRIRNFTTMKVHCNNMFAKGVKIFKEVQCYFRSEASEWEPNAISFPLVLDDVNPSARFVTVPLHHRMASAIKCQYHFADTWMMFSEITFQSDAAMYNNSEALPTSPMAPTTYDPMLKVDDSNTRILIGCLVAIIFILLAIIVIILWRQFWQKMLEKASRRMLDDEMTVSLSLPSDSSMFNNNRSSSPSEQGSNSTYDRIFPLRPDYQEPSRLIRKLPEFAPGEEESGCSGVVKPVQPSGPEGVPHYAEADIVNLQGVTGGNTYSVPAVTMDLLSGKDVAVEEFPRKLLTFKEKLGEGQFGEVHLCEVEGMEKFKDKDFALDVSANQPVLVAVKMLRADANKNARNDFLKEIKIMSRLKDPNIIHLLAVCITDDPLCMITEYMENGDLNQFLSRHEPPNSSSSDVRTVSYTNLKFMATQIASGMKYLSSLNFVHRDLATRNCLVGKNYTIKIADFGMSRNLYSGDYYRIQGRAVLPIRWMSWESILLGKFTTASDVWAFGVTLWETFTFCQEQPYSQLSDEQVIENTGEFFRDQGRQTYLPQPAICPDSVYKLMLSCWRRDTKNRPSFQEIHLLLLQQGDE
Put plainly: Inhibition of DDR2 (unknown origin) at 10 uM after 120 mins P33 radiolabeled kinase activity assay.

What is called inhibition is the relative decrease from the control value, in per cent.

Chain of Aurora kinase B (Homo sapiens) (Q96GD4 whole entry, the tested form may be a part): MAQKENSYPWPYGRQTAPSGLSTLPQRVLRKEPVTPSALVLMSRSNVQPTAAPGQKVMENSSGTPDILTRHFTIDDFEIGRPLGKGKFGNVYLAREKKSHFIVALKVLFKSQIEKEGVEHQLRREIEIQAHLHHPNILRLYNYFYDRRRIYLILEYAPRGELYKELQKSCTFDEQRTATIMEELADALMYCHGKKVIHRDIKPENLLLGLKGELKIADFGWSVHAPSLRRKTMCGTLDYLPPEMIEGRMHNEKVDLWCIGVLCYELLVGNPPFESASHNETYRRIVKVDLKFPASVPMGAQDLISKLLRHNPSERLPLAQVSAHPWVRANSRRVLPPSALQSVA
Chain of Dual specificity tyrosine-phosphorylation-regulated kinase 1B (Homo sapiens) (Q9Y463 whole entry, looked up): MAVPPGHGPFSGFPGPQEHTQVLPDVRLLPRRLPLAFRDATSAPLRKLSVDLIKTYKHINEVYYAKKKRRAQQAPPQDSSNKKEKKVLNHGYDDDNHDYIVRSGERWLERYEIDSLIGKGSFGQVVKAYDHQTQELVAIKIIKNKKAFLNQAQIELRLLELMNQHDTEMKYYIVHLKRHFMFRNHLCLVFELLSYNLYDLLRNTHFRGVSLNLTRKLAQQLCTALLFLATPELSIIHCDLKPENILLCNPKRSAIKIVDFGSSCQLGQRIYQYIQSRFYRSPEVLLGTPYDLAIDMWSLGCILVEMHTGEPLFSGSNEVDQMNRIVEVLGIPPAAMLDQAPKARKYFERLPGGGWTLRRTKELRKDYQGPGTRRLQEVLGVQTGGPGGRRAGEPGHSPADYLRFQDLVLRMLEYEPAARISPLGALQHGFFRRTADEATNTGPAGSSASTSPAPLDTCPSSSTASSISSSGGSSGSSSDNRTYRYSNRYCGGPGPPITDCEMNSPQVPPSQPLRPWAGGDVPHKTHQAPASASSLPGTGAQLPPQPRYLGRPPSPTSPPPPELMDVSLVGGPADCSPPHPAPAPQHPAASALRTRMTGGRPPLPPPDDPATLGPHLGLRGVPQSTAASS

With `CS(=O)(=O)c1cccc(Nc2nccc(-c3sc(N4CCOCC4)nc3-c3cccc(NS(=O)(=O)c4c(F)cccc4F)c3)n2)c1`, the inhibition in test [1] was 27.5%; in test [2], 4.25%; in test [3], 42.4%; in the test listed under Homo sapiens, -3.18%; in test [4], 1.51%; in test [5], 82.1%. Further, the inhibition in test [6] stood at 99%.
Regarding `CC(C)(C)c1cc(NC(=O)Nc2ccc(Oc3ccncc3)cc2)no1`, the inhibition in test [1] is 14.5%; in test [2] it was -1.68%; in test [3], 33.8%; in the test filed under Homo sapiens it was -4.39%; in test [4], -0.16%; in test [5] it was 49.2%. The inhibition in test [6] was found to be 98%.
Turning to `COCCNC(=O)c1ccc2c(c1)nc(-c1cnc(-c3ccc(Cl)cc3)[nH]1)n2CCOC`, the inhibition in test [1] was 11.4%; in test [2], 5.26%; in test [3] it was 16.4%; in the test filed under Homo sapiens, 3%; in test [4], -5.88%; in test [5], 6.36%. Moreover, the inhibition in test [6] was 28.2%.
